Measured values reported in ChEMBL document CHEMBL2094269, “WEHI/Eskitis Trypanosoma b. brucei screening data”.

tested on: not listed separately; experiment: DNDI: Cytotoxicity against human MRC-5 lung fibroblast cells.; settings: IC50

Row | SMILES | IC50 [µM]
1 | O=C1c2cccc3cccc(c23)C(=O)N1CCNCCO | > 4.17
2 | Cc1ccccc1-n1sc2ccccc2c1=O | > 20.8
3 | Cc1ccc(O)c(/N=N/c2nnc[nH]2)c1 | > 10.4
4 | O=C(Nc1ccc(Cl)c(-c2nc3ncccc3o2)c1)c1ccco1 | > 41.7
5 | CC1CCc2nc(SC3CC(=O)C4OCC3O4)nc(C(F)(F)F)c2C1 (stereo not drawn) | > 20.8
6 | C/C(=C\c1ccccc1)c1nc2c(=O)n(C)c(=O)nc-2n(C)n1 | > 20.8
7 | CN(C)CCOc1ccccc1C1NCCc2c1[nH]c1ccccc21 (stereo not drawn) | > 20.8
8 | Cc1c(C)c(C)c2c(CC(C)N)c[nH]c2c1C (stereo not drawn) | > 41.7
9 | Cc1cccc2ccc(/C=C/c3ccc(N(C)C)cc3)[n+](C)c12 | > 4.17
10 | N=C(N)N/N=C1/C(=O)Nc2ccc(Br)cc21 | > 41.7
11 | c1ccc(Nc2nc(-c3ccccn3)cs2)nc1 | > 10.4
12 | OCCNC1CCCc2c1[nH]c1ccc(Br)cc21 (stereo not drawn) | > 20.8
13 | CC(C)CC[n+]1ccccc1C=Cc1ccc(N(C)C)cc1 | > 10.4
14 | N=c1c2c(n(Cc3ccc(Cl)cc3Cl)c3c1CCC3)CCCC2 | > 41.7
15 | COC(=O)C1=C(OC)C(=O)OC12C=CC(=O)C=C2 | 1.06
16 | CC[n+]1c(/C=C2\Sc3cc(NC(C)=O)ccc3N2C)ccc2ccccc21 | > 41.7
17 | Cc1ccc(-c2cn3c([n+]2-c2ccc(C)cc2)CCCCC3)cc1 | > 20.8

tested on: Trypanosoma brucei brucei; experiment: microbe, parasite or virus in culture; type: functional, organism-based, STIB 795; settings: not given

Row | SMILES | IC50 [µM]
18 | OCCNC1CCCc2c1[nH]c1ccc(Br)cc21 (stereo not drawn) | 1.83

same assay, conditions: Trypanosoma brucei, STIB 795

Row | SMILES | IC50 [µM]
19 | O=C1c2cccc3cccc(c23)C(=O)N1CCNCCO | 4.5
20 | CCN1CCN(c2cc(C)c3cc(NC(=O)c4ccccc4F)ccc3n2)CC1 | > 10.4
21 | COc1ccc(C(=O)CSC2=C(C#N)C3(CCCCC3)C(C#N)=C(N)N2)cc1 | > 10.4
22 | CCN(CC)c1cc(C)c2cc(NC(=O)/C=C/c3ccccc3Cl)ccc2n1 | > 10.4
23 | CCOC(=O)C1CCCN(C2=NC(=O)/C(=C/c3ccc(O)c(OC)c3)S2)C1 (stereo not drawn) | > 10.4
24 | CCCC(=O)NC(c1ccc2c(c1)OCO2)c1cc(Cl)c2cccnc2c1O (stereo not drawn) | > 10.4
25 | Cc1ccc(CN2C(=O)CCC2C(=O)N2CCN(c3ccc(F)cc3)CC2)cc1 (stereo not drawn) | > 10.4
26 | COc1ccc(OC)c(/C=C/C(=O)Nc2ccc(C(=O)OCCC(C)C)cc2)c1 | > 10.4
27 | N#CC1=C(N)OC2=C(CC/C2=C\c2ccccc2Cl)C1c1ccccc1Cl (stereo not drawn) | > 10.4
28 | O=C(O)CSc1cc(NS(=O)(=O)c2ccccc2)c2ccccc2c1O | > 10.4
29 | CC12C(=O)N(c3ccc(Cl)cc3O)C(=O)C1C1c3ccccc3C2c2ccccc21 (stereo not drawn) | > 10.4
30 | Cc1ccccc1-n1sc2ccccc2c1=O | 1.99
31 | Cc1ccc(O)c(/N=N/c2nnc[nH]2)c1 | 0.404
32 | O=C(Nc1ccc(Cl)c(-c2nc3ncccc3o2)c1)c1ccco1 | 0.17
33 | CC1CCc2nc(SC3CC(=O)C4OCC3O4)nc(C(F)(F)F)c2C1 (stereo not drawn) | 2.62
34 | C/C(=C\c1ccccc1)c1nc2c(=O)n(C)c(=O)nc-2n(C)n1 | 5.62
35 | CN(C)CCOc1ccccc1C1NCCc2c1[nH]c1ccccc21 (stereo not drawn) | 1.28
36 | Cc1c(C)c(C)c2c(CC(C)N)c[nH]c2c1C (stereo not drawn) | 4.24
37 | Cc1cccc2ccc(/C=C/c3ccc(N(C)C)cc3)[n+](C)c12 | < 0.004
38 | CC1CCN(C(=S)NC(=O)c2ccccc2I)CC1 | > 10.4
39 | CCn1c2ccccc2c2cc(CNCCc3ccc(OC)c(OC)c3)ccc21 | > 10.4
40 | CSc1ccc(C2N=C(c3ccc(C)cc3)CC(c3ccccc3O)N2)cc1 (stereo not drawn) | > 10.4
41 | Cc1ccc(S(=O)(=O)C(CC(=O)c2ccco2)c2ccc(Cl)cc2)cc1 (stereo not drawn) | > 10.4

Row | SMILES | IC50 [µM]
42 | CCN(CC)c1cc(C)c2cc(NC(=O)/C=C/c3ccc(OC)cc3)ccc2n1 | > 10.4
43 | CCCCOc1cccc(-c2cc(C(=O)N/N=C(\C)CC)c3ccccc3n2)c1 | > 10.4
44 | CCCC(=O)c1ccc(N2CCN(C(=O)c3c(F)cccc3F)CC2)c(F)c1 | > 10.4
45 | Cc1ccc(N2CC(C(=O)NCc3nnnn3-c3ccccc3)CC2=O)cc1C (stereo not drawn) | > 10.4
46 | C=CCN1C(=O)c2ccccc2Sc2ccc(C(=O)NCc3ccco3)cc21 | > 10.4
47 | Cc1cc(C)n(-c2nc(N/N=C/c3cccs3)nc(Nc3ccccc3)n2)n1 | > 10.4
48 | Cc1c(NC(=O)CN2CCN(C(=O)c3ccccc3)CC2)n(C)c2ccccc12 | > 10.4
49 | CC(C)NC(=O)Nc1ccc(-c2noc(-c3ccc(Br)o3)n2)cc1 | > 10.4
50 | CN(CC(=O)Nc1nncs1)S(=O)(=O)c1ccc(Br)cc1 | > 10.4
51 | CCOC(=O)N1CCN(c2ccc(/C=C(\C#N)c3nc4ccccc4[nH]3)o2)CC1 | > 10.4
52 | CCOC(=O)c1c(NC(C)=O)sc2c1CCC(Sc1ccccc1)C2O (stereo not drawn) | > 10.4
53 | Cc1ccsc1/C=C/C(=O)Nc1ccc2nc(N3CCCCC3)cc(C)c2c1 | > 10.4
54 | CCN1CCC(N(Cc2cccs2)C(=O)Nc2ccc(C)c(Cl)c2)CC1 | > 10.4
55 | CCOC(=O)c1cc2c(=O)n3ccccc3nc2n(CCCn2ccnc2)c1=N | > 10.4
56 | O=C(NN=C(/C=C/c1ccccc1)c1ccccc1)c1cc2ccccc2cc1O | > 10.4
57 | COc1ccccc1-n1c(C)cc(/C=C2\C(=N)N3C(C)=CSC3=NC2=O)c1C | > 10.4
58 | O=C(Nc1cccc(Cl)c1)C1CCN(c2ncc(-c3ccccc3)cn2)CC1 | > 10.4
59 | OCCN1CCN(C2Cc3ccccc3Sc3cc(Cl)c(F)cc32)CC1 (stereo not drawn) | > 10.4
60 | C/C(=C\c1nsc(Nc2ccc(F)c(Cl)c2)n1)NCCC1=CCCCC1 | > 10.4
61 | C/C(=N/Nc1ccc(F)cc1F)c1cc2cc(Br)ccc2oc1=O | > 10.4
62 | COc1ccc(C(=O)c2ccc(N3CCNCC3)c(F)c2)cc1Br | > 10.4
63 | O=C(Nc1ccccc1C(=O)N/N=C/c1ccc(O)cc1O)c1ccc(F)cc1 | > 10.4
64 | Oc1c(C(Nc2ccccn2)c2ccc(OC(F)F)cc2)ccc2cccnc12 (stereo not drawn) | > 10.4

Row | SMILES | IC50 [µM]
65 | CC(=O)NC1=C(N2CCN(c3ccc(F)cc3)CC2)C(=O)c2ccccc2C1=O | > 10.4
66 | O=C(NCC1CCCO1)c1cccc(Oc2cc(-c3ccc(F)cc3)ncn2)c1 (stereo not drawn) | > 10.4
67 | Cc1nnc(Sc2nc(Nc3ccccc3)nc(Nc3ccccc3)n2)s1 | > 10.4
68 | Cc1nc(=S)sn1-c1nc(Nc2ccccc2)nc(Nc2ccccc2)n1 | > 10.4
69 | CCn1cc(CN2CCC(C(=O)NCc3ccc(F)cc3)CC2)c2ccccc21 | > 10.4
70 | O=C(Nc1ccccc1C(=O)N/N=C/c1ccccc1O)c1ccccc1Cl | > 10.4
71 | Cc1ccnc(NC(c2ccc3cccnc3c2O)c2c(F)cccc2Cl)c1 (stereo not drawn) | > 10.4
72 | Cc1cc(N2CCC(C)CC2)nc2ccc(NC(=O)c3cccc(Cl)c3)cc12 | > 10.4
73 | CC(C)(C)c1ccc(C(OC(CN)c2ccccc2)c2ccc(Cl)cc2)cc1 (stereo not drawn) | > 10.4
74 | Cc1nc2ccc3nc(NC(=O)c4ccc(Cl)cc4Cl)sc3c2s1 | > 10.4
75 | CCOC(=O)c1ccc(NC(=O)CN(c2cccc(F)c2)S(C)(=O)=O)cc1 | > 10.4
76 | O=C1C(Nc2ccccc2)=C/C(=N/S(=O)(=O)c2cccs2)c2ccccc21 | > 10.4
77 | [H]/N=C(/N)SCc1nc2n(Cc3ccccc3)c3ccccc3n2c1C(=O)OC | > 10.4
78 | COc1ccc(CNC2=C(C(=S)Nc3ccccc3)C(=O)CC(C)(C)C2)cc1 | > 10.4
79 | Oc1ccc(-c2nnc(SCCN3CCCCC3)n2Cc2ccccc2)cc1 | > 10.4
80 | COc1ccc(CN2CCN(C3CCC(c4ccccc4)CC3)CC2)c(OC)c1 (stereo not drawn) | > 10.4
81 | CC1=NN(c2ccccc2)C(=O)/C1=C/c1ccc(Sc2ccc(Cl)cc2)o1 | > 10.4
82 | Clc1ccc2nc(CCc3ccccc3)nc(NCCN3CCCCC3)c2c1 | > 10.4
83 | O=C(O)c1ccccc1N/N=C(/c1ccccc1)c1ccc(Br)cc1 | > 10.4
84 | COc1cccc(C2=CC(c3cc(OC)c(OC)c(OC)c3)n3nnnc3N2)c1 (stereo not drawn) | > 10.4
85 | Cc1cc(N2CCC(C)CC2)nc2ccc(NC(=O)c3c(F)cccc3F)cc12 | > 10.4
86 | CCN(CC)c1cc(C)c2cc(NC(=O)C3CCC(C(C)(C)C)CC3)ccc2n1 (stereo not drawn) | > 10.4
87 | O=C(CCC(=O)Nc1cccc(Cl)c1)N/N=C/c1c(O)ccc2ccccc12 | > 10.4

Row | SMILES | IC50 [µM]
88 | COc1cccc(/C=N/NC(=O)c2ccccc2I)c1O | > 10.4
89 | CCN(CC)CCOC(COC)(c1ccc(Cl)cc1)c1ccc(Cl)cc1 | > 10.4
90 | Cc1ccc(S(=O)(=O)/N=C2\C=C(N3CCOCC3)C(=O)c3ccccc32)cc1 | > 10.4
91 | CC(C)CCOc1ccc(/C=N/NC(=O)C23CC4CC(C)(CC(C)(C4)C2)C3)cc1 | > 10.4
92 | CCN(CC)CC(O)CN(/N=C/c1ccc(N(CC)CC)cc1)c1ccccc1 (stereo not drawn) | > 10.4
93 | CCOC(=O)COc1ccc(/C=C\c2cc(C(F)(F)F)nc(=O)[nH]2)cc1OC | > 10.4
94 | Cc1ccc(O)c(/C=N/NC(=O)C2=NNC(c3ccccc3)(c3ccccc3)C2)c1 | > 10.4
95 | COc1cc(C(CC(=O)c2ccco2)Sc2ccccc2)cc(OC)c1OC (stereo not drawn) | > 10.4
96 | COc1ccc(C(=O)NN=C2C=C(C(C)(C)C)C(=O)C(C(C)(C)C)=C2)cc1OC | > 10.4
97 | CCOC(=O)C1=C(C)NC(SCC(=O)c2ccccc2)=C(C#N)C1CC(C)C (stereo not drawn) | > 10.4
98 | Cc1ccc(NC(=O)CN(C)C(=O)c2ccc3c(c2)nnn3C(C)C)c(Cl)c1 | > 10.4
99 | CCOC(=O)c1sc(-n2[nH]c(C)c(Cc3ccc(Cl)cc3)c2=O)nc1C | > 10.4
100 | c1ccc(Nc2nc(-c3ccccn3)cs2)nc1 | 0.718
101 | OCCNC1CCCc2c1[nH]c1ccc(Br)cc21 (stereo not drawn) | 2.45
102 | CC(C)CC[n+]1ccccc1C=Cc1ccc(N(C)C)cc1 | 0.734
103 | N=c1c2c(n(Cc3ccc(Cl)cc3Cl)c3c1CCC3)CCCC2 | 0.842
104 | CC(/C=N/NC(=O)c1cc(-c2ccc(OC(C)C)cc2)n[nH]1)=C\c1ccccc1 | > 10.4
105 | CCC(C)(C)c1ccc(OCC(O)CNCc2ccccc2)c(C(C)(C)CC)c1 (stereo not drawn) | > 10.4
106 | COC(=O)C1=C(OC)C(=O)OC12C=CC(=O)C=C2 | 0.524
107 | CC[n+]1c(/C=C2\Sc3cc(NC(C)=O)ccc3N2C)ccc2ccccc21 | 5.41
108 | Cc1ccc(-c2cn3c([n+]2-c2ccc(C)cc2)CCCCC3)cc1 | 6.4
